Source: patent publication US11105799B2, “Biomarkers of therapeutic responsiveness” (Meso Scale Technologies, LLC., priority 2009, dated 2021)

Legend:
human 786-0 RCC cells [1] = test: Tumor size of human 786-0 RCC xenografts in mice treated with sorafenib; assay type: in vivo; details: tumor approximately 12 mm diameter at start
Experimental: A panel of biomarkers was measured in RCC xenograft tissue extracts from mice. The mice were implanted with human 786-0 RCC cells and the cells were allowed to grow until a tumor of approximately 12 mm diameter was formed. The “Set A” group of mice received no drug treatment prior to removal of the xenograft tissue. The other two groups of mice—“Set C” and “Set D”—were treated with sorafenib prior to removal of the xenograft tissue. […] The “Set D” developed resistance to the drug and the tumor size increased to 16 mm in diameter during treatment.

human 786-0 RCC cells [2] = test: Multiplex immunoassay of biomarker levels in RCC xenograft tissue extracts from mice; assay type: in vivo; details: for AMPKa1 Total marker concentration +/- SD / AMPKa1 p174 marker concentration +/- SD / AMPKa1 p285 marker concentration +/- SD / Gsk3b Phospho marker concentration +/- SD / Gsk3b Total marker concentration +/- SD / Mek1/2 Phospho marker concentration +/- SD / Mek1/2 Total marker concentration +/- SD: 1 ug protein/well; for STAT3 Phospho marker concentration +/- SD: 2 ug protein/well; for Hif1a Total marker concentration +/- SD: 4 ug protein/well
Experimental: A panel of biomarkers was measured in RCC xenograft tissue extracts from mice. The mice were implanted with human 786-0 RCC cells and the cells were allowed to grow until a tumor of approximately 12 mm diameter was formed. The “Set A” group of mice received no drug treatment prior to removal of the xenograft tissue.
Multiplex immunoassay kits were used for detection of total and/or phosphorylated biomarkers (supplied by Meso Scale Diagnostics, LLC, Gaithersburg, Md.). Levels of each biomarker were determined by calibration of the assays with were either purified calibrator proteins or using control cell lysates from appropriately treated cultured cell lines (e.g., cells subjected to conditions known to induce or reduce levels of a specific biomarker). Calibration curves were derived by testing serial dilutions of the calibrator lysates or purified proteins. Levels of biomarkers in test samples were back-calculated from the calibration curves and were expressed in terms of wt. of protein per weight of tissue extract (for purified calibrators) or in terms of weight of crude control lysate protein per well (for lysate calibrators). Titrations of tumor extracts were carried out to determine the linearity of the assay response to sample dilution and to select the sample dilution that would be appropriate to use for each assay panel.
In general, the assay format was as follows, with minor alterations for specific assay panels as indicated in the assay protocols provided with each assay kit (supplied by Meso Scale Diagnostics, LLC): (1) block MSD MULTI-SPOT® plate for 1 hour with appropriate MSD® blocking solution and wash; (2) add 25 μl assay diluent to each well, if specified; (3) add 25 μl calibrator, or sample (diluted as appropriate) to each well; (4) incubate with shaking for 1-3 hours (time as specified) and wash the well; (5) add 25 μl labeled detection antibody solution to each well; (6) incubate with shaking for 1-2 hours (time as specified) and wash the well; (7) add 150 μl MSD read buffer to each well; (8) read plate immediately on MSD SI6000 Reader (supplied by Meso Scale Diagnostics, LLC).

tumor vasculature = details: xenograft studies; cited from earlier work
GSK30 = details: melanoma cells; cited from earlier work
[3] = Tumor Group C (treated), sensitive to sorafenib, 0.5 ug total protein/well
[4] = Tumor Group C (treated), sensitive to sorafenib
[5] = Tumor Group C (treated), sensitive to sorafenib, 2.5 ug protein/well
[6] = Tumor Group D (resistant), sorafenib treated, 0.5 ug total protein/well
[7] = Tumor Group D (resistant), sorafenib treated
[8] = Tumor Group D (resistant), sorafenib treated, 2.5 ug protein/well

Structure (SMILES): CNC(=O)c1cc(Oc2ccc(NC(=O)Nc3ccc(Cl)c(C(F)(F)F)c3)cc2)ccn1 [sorafenib]
- tumor size (human 786-0 RCC cells [1]; Set C, sensitive): tumor size decreased
- tumor size (diameter) during treatment (human 786-0 RCC cells [1]; Set D, developed resistance): 16 mm
- Akt Phospho marker concentration +/- SD (human 786-0 RCC cells [2]; [3]): 348 +/− 85 ng calibrator lysate protein/w
- Akt Total marker concentration +/- SD (human 786-0 RCC cells [2]; [3]): 142 +/− 43 ng calibrator lysate protein/w
- Erk1/2 Phospho marker concentration +/- SD (human 786-0 RCC cells [2]; [3]): 102 +/− 45 ng calibrator lysate protein/w
- Met Phospho marker concentration +/- SD (human 786-0 RCC cells [2]; [3]): 34 +/− 7 ng calibrator lysate protein/w
- Met Total marker concentration +/- SD (human 786-0 RCC cells [2]; [3]): 850 +/− 375 ng calibrator lysate protein/w
- p21 Total marker concentration +/- SD (human 786-0 RCC cells [2]; [3]): 1.1 +/− 0.3 pg/ug tumor protein
- p38 Total marker concentration +/- SD (human 786-0 RCC cells [2]; [3]): 449 +/− 266 ng calibrator lysate protein/w
- AMPKa1 Total marker concentration +/- SD (human 786-0 RCC cells [2]; [4]): 29 +/− 13 pg/ug tumor protein
- AMPKa1 p174 marker concentration +/- SD (human 786-0 RCC cells [2]; [4]): 7.3 +/− 4.4 pg/ug tumor protein
- AMPKa1 p285 marker concentration +/- SD (human 786-0 RCC cells [2]; [4]): 29 +/− 15 pg/ug tumor protein
- Gsk3b Phospho marker concentration +/- SD (human 786-0 RCC cells [2]; [4]): 1188 +/− 446 ng calibrator lysate protein/w
- Gsk3b Total marker concentration +/- SD (human 786-0 RCC cells [2]; [4]): 3771 +/− 1491 ng calibrator lysate protein/w
- Mek1/2 Phospho marker concentration +/- SD (human 786-0 RCC cells [2]; [4]): 116 +/− 21 ng calibrator lysate protein/w
- Mek1/2 Total marker concentration +/- SD (human 786-0 RCC cells [2]; [4]): 350 +/− 90 ng calibrator lysate protein/w
- STAT3 Phospho marker concentration +/- SD (human 786-0 RCC cells [2]; [4]): 65 +/− 16 ng calibrator lysate protein/w
- Jnk Phospho marker concentration +/- SD (human 786-0 RCC cells [2]; [5]): 74 +/− 29 ng calibrator lysate protein/w
- Jnk Total marker concentration +/- SD (human 786-0 RCC cells [2]; [5]): 983 +/− 356 ng calibrator lysate protein/w
- PlGF Total marker concentration +/- SD (human 786-0 RCC cells [2]; [5]): 0.083 +/− 0.031 pg/ug tumor protein
- VEGFR-1 Total marker concentration +/- SD (human 786-0 RCC cells [2]; [5]): 0.26 +/− 0.08 pg/ug tumor protein
- bFGF Total marker concentration +/- SD (human 786-0 RCC cells [2]; [5]): 2.1 +/− 0.6 pg/ug tumor protein
- Hif1a Total marker concentration +/- SD (human 786-0 RCC cells [2]; [4]): 19 +/− 3 ng calibrator lysate protein/w
- Akt Phospho marker concentration +/- SD (human 786-0 RCC cells [2]; [6]): 354 +/− 84 ng calibrator lysate protein/w
- Akt Total marker concentration +/- SD (human 786-0 RCC cells [2]; [6]): 93 +/− 25 ng calibrator lysate protein/w
- Erk1/2 Phospho marker concentration +/- SD (human 786-0 RCC cells [2]; [6]): 206 +/− 103 ng calibrator lysate protein/w
- Erk1/2 Total marker concentration +/- SD (human 786-0 RCC cells [2]; [6]): 486 +/− 306 ng calibrator lysate protein/w
- Met Phospho marker concentration +/- SD (human 786-0 RCC cells [2]; [6]): 41 +/− 6 ng calibrator lysate protein/w
- Met Total marker concentration +/- SD (human 786-0 RCC cells [2]; [6]): 595 +/− 137 ng calibrator lysate protein/w
- p21 Total marker concentration +/- SD (human 786-0 RCC cells [2]; [6]): 2.2 +/− 0.9 pg/ug tumor protein
- p38 Total marker concentration +/- SD (human 786-0 RCC cells [2]; [6]): 428 +/− 227 ng calibrator lysate protein/w
- AMPKa1 Total marker concentration +/- SD (human 786-0 RCC cells [2]; [7]): 26 +/− 10 pg/ug tumor protein
- AMPKa1 p174 marker concentration +/- SD (human 786-0 RCC cells [2]; [7]): 3.8 +/− 0.9 pg/ug tumor protein
- AMPKa1 p285 marker concentration +/- SD (human 786-0 RCC cells [2]; [7]): 19 +/− 5 pg/ug tumor protein
- Gsk3b Phospho marker concentration +/- SD (human 786-0 RCC cells [2]; [7]): 1474 +/− 294 ng calibrator lysate protein/w
- Gsk3b Total marker concentration +/- SD (human 786-0 RCC cells [2]; [7]): 3829 +/− 1058 ng calibrator lysate protein/w
- Mek1/2 Phospho marker concentration +/- SD (human 786-0 RCC cells [2]; [7]): 113 +/− 24 ng calibrator lysate protein/w
- Mek1/2 Total marker concentration +/- SD (human 786-0 RCC cells [2]; [7]): 359 +/− 103 ng calibrator lysate protein/w
- STAT3 Phospho marker concentration +/- SD (human 786-0 RCC cells [2]; [7]): 41 +/− 10 ng calibrator lysate protein/w
- Jnk Phospho marker concentration +/- SD (human 786-0 RCC cells [2]; [8]): 110 +/− 22 ng calibrator lysate protein/w
- Jnk Total marker concentration +/- SD (human 786-0 RCC cells [2]; [8]): 878 +/− 231 ng calibrator lysate protein/w
- PlGF Total marker concentration +/- SD (human 786-0 RCC cells [2]; [8]): 0.144 +/− 0.073 pg/ug tumor protein
- VEGF Total marker concentration +/- SD (human 786-0 RCC cells [2]; [8]): 26 +/− 15 pg/ug tumor protein
- VEGFR-1 Total marker concentration +/- SD (human 786-0 RCC cells [2]; [8]): 0.39 +/− 0.14 pg/ug tumor protein
- bFGF Total marker concentration +/- SD (human 786-0 RCC cells [2]; [8]): 2.6 +/− 1.3 pg/ug tumor protein
- Hif1a Total marker concentration +/- SD (human 786-0 RCC cells [2]; [7]): 14 +/− 3 ng calibrator lysate protein/w
- effect on tumor vasculature (tumor vasculature): reduction in tumor vasculature
- effect on GSK3β activity (GSK30): activates GSK30
